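Compound exposure: 48 hours, 5 concentrations, 96-well plates. The concentration for full growth arrest is given as TGI.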 Bounds are passed on as bounds.

What all share (test): DTP human tumour cell line panel, 48 h
Experiment [1] concerns ACHN renal.
The subject of experiment [2] is SF-268 CNS.
Experiment [3] deals with HCC-2998 colon.
Experiment [4] has as its system NCI-H23 lung.
In experiment [5] the test system is MCF7 breast.
Experiment [6] relates to LOX IMVI melanoma.
In experiment [7] the test system is TK-10 renal.
Experiment [8] has as its system MDA-N.
Experiment [9] relates to T-47D breast.
Experiment [10] deals with M14 melanoma.
The test system of experiment [11] is DU-145 prostate.
Experiment [12] deals with IGROV1 ovarian.
Experiment [13] concerns RPMI-8226 leukemia.
Experiment [14] deals with HCT-15 colon.
Experiment [15] has as its system BT-549 breast.
Experiment [16] concerns SK-MEL-5 melanoma.
The subject of experiment [17] is OVCAR-8 ovarian.
The test system of experiment [18] is NCI-H460 lung.
Experiment [19] has as its system NCI-H226 lung.

On to `CC(C)(C)OC(=O)NC(Cc1ccc(OCc2ccccc2)cn1)C(=O)N1CCSCC1` (centres undefined), for which the TGI in experiment [1], in [2], in [3], in [4], in experiment [5] and in experiment [6] was over 100 µM in each case. The TGI is over 100 µM in experiment [7]; over 100 µM in experiment [8]; 49.6 µM in experiment [9]; over 100 µM in experiment [10]; over 100 µM in experiment [11]; over 100 µM in experiment [12]. In addition, the TGI is 59.1 µM in [13]; over 100 µM in experiment [14]; 71.7 µM in experiment [15]; 29.9 µM in experiment [16]; over 100 µM in experiment [17]; over 100 µM in experiment [18].

Consider `CC(=O)N1N=C(N)CC1=O`, for which the concentration for total growth inhibition (TGI) in experiment [1], in experiment [2], in [3], in [4], in [5] and in experiment [19] was over 100 µM throughout. Further, the TGI in [6], in experiment [7], in [8], in experiment [9], in experiment [10] and in experiment [11] was over 100 µM in each case. The TGI in [12], in [14], in experiment [15], in experiment [16], in [17] and in experiment [18] was over 100 µM in each case.

As to `CC(=O)NNC(=S)/N=C/c1c(O)cc(C)oc1=O`, the TGI in [1], in experiment [3], in experiment [4], in [5], in experiment [19] and in experiment [6] was over 100 µM in each case. Further, the TGI in experiment [7], in [8], in experiment [9], in experiment [10], in experiment [11] and in [12] was over 100 µM in each case. The TGI in [14], in experiment [15], in [16], in experiment [17] and in experiment [18] was over 100 µM each time.

Regarding `CCOC(=O)c1cc(=O)oc2c1N(C)c1ncccc1N2`, the total growth inhibition concentration (TGI) in experiment [1], in experiment [2], in experiment [3], in experiment [4], in experiment [5] and in experiment [19] was over 100 µM each time. Also, the total growth inhibition concentration (TGI) in experiment [6], in [7], in experiment [8], in experiment [9], in experiment [10] and in [11] was over 100 µM in each case. Further, the TGI in experiment [13], in experiment [14], in experiment [15], in experiment [17] and in experiment [18] was over 100 µM throughout.

As to `CCOC(=O)/C=C(\N=P(c1ccccc1)(c1ccccc1)c1ccccc1)C(F)(F)C(F)(F)C(F)(F)C(F)(F)C(F)(F)F`, the concentration for total growth inhibition (TGI) in experiment [1], in experiment [2], in [3], in experiment [4], in experiment [5] and in [6] was over 100 µM in each case. Moreover, the total growth inhibition concentration (TGI) in [7], in experiment [8], in experiment [9], in experiment [10], in experiment [11] and in experiment [12] was over 100 µM in each case. The TGI in experiment [13], in experiment [14], in experiment [15], in [16] and in [18] was over 100 µM in each case.

With `COc1ccc(C(C#N)NCCCCCCNC(C#N)c2ccc(OC)cc2)cc1` (centres undefined), the TGI in [1], in [2], in [3], in [4], in [5] and in experiment [19] was over 100 µM each time. Besides, the concentration for total growth inhibition (TGI) in [6], in [7], in experiment [8], in experiment [9], in experiment [10] and in experiment [11] was over 100 µM throughout. The concentration for total growth inhibition (TGI) in experiment [12], in [13], in experiment [14], in experiment [15], in experiment [16] and in experiment [17] was over 100 µM throughout.

`O=C(CN1CCOCC1)CC(O)(C(F)(F)F)C(F)(F)F`: the TGI in [1], in experiment [3], in [4], in [5], in [19] and in experiment [6] was over 100 µM throughout. Further, the TGI in experiment [7], in [8], in [9], in [10], in experiment [11] and in experiment [12] was over 100 µM throughout. Further, the TGI in experiment [13], in [14], in [15], in [16] and in [17] was over 100 µM in each case.

Take `COc1ccc2c(c1)CCCN1CCc3cc(OC)c(OC)cc3C21` (centres undefined): the TGI in [1], in experiment [2], in experiment [3], in experiment [5], in experiment [19] and in [6] was over 100 µM each time. For the same compound, the TGI in experiment [7], in experiment [8], in [9], in experiment [10], in [11] and in [12] was over 100 µM each time. The total growth inhibition concentration (TGI) in experiment [13] was over 100 µM; in [14], over 100 µM; in experiment [15], 43.2 µM; in experiment [16], over 100 µM; in experiment [17] it was over 100 µM.
